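Interpolation was linear, between the two tested concentrations surrounding the appropriate level; five concentrations were tested over 48 hours in 96-well plates. TGI marks complete inhibition of growth.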
Assays:
Assay in all cases: NCI tumour cell line growth inhibition, 48 h
ACHN renal = test system: ACHN renal
CAKI-1 renal = test system: CAKI-1 renal
HCC-2998 colon = test system: HCC-2998 colon
HOP-62 NSCLC = test system: HOP-62 NSCLC
IGROV1 ovarian = test system: IGROV1 ovarian
NCI-H226 lung = test system: NCI-H226 lung
PC-3 prostate = test system: PC-3 prostate
SF-295 CNS = test system: SF-295 CNS
SF-539 CNS = test system: SF-539 CNS
SK-MEL-28 melanoma = test system: SK-MEL-28 melanoma
SK-OV-3 ovarian = test system: SK-OV-3 ovarian
UACC-62 melanoma = test system: UACC-62 melanoma

Compound	TGI (ACHN renal)	TGI (CAKI-1 renal)	TGI (HCC-2998 colon)	TGI (HOP-62 NSCLC)	TGI (IGROV1 ovarian)	TGI (NCI-H226 lung)	TGI (PC-3 prostate)	TGI (SF-295 CNS)	TGI (SF-539 CNS)	TGI (SK-MEL-28 melanoma)	TGI (SK-OV-3 ovarian)	TGI (UACC-62 melanoma)
C=CCOc1ccccc1N=N/C(C#N)=N\Nc1ccccc1OCC=C	> 100 µM	> 100 µM	> 100 µM	> 100 µM	> 100 µM	> 100 µM	> 100 µM	> 100 µM	> 100 µM	> 100 µM	> 100 µM	> 100 µM
O=C1C(F)=CC(COC(c2ccccc2)(c2ccccc2)c2ccccc2)OC1n1cc(F)c(=O)[nH]c1=O (stereo unspecified)	3.08 µM	9.09 µM	14.1 µM	11.6 µM	6.79 µM	5.51 µM	4.69 µM	5.06 µM	3.75 µM	3.5 µM	14.4 µM	3.62 µM
FC(F)(F)c1ccccc1N1CCN(c2nc(-c3cccs3)nc3ccc(Br)cc23)CC1	> 100 µM	94.5 µM	25 µM	> 100 µM	> 100 µM	> 100 µM	49.5 µM	> 100 µM	> 100 µM	> 100 µM	> 100 µM	46.3 µM
Cc1ccc(OCC2OC(n3cnc4c(N(C)C)nc(Br)nc43)CC2Oc2ccc(C)cc2)cc1 (stereo unspecified)	> 100 µM	> 100 µM	> 100 µM	–	> 100 µM	> 100 µM	> 100 µM	> 100 µM	> 100 µM	> 100 µM	> 100 µM	> 100 µM
c1ccc(-c2sc(-c3cccs3)cc2Cc2cccs2)cc1	> 10 µM	> 10 µM	> 10 µM	> 10 µM	> 10 µM	> 10 µM	> 10 µM	> 10 µM	> 10 µM	> 10 µM	> 10 µM	> 10 µM
NC(=O)c1nnc2cc(F)ccc2c1N	> 100 µM	> 100 µM	> 100 µM	> 100 µM	> 100 µM	> 100 µM	> 100 µM	> 100 µM	> 100 µM	–	> 100 µM	> 100 µM
O=[N+]([O-])/C(C(Cl)=C(Cl)Cl)=C1\NCCO1	> 100 µM	> 100 µM	> 100 µM	> 100 µM	> 100 µM	> 100 µM	> 100 µM	> 100 µM	> 100 µM	> 100 µM	> 100 µM	> 100 µM
N#Cc1c(SCc2ccccc2)nc(-c2ccccc2)[nH]c1=S	63.3 µM	79 µM	39.8 µM	40.7 µM	79.4 µM	70.3 µM	35.2 µM	55.1 µM	56.6 µM	55 µM	60.1 µM	56.6 µM
C/C(=N/NC(=S)Nc1ccccc1Cl)c1cccc(/C(C)=N\NC(=S)Nc2ccccc2Cl)n1	> 100 µM	> 100 µM	> 100 µM	> 100 µM	> 100 µM	> 100 µM	> 100 µM	> 100 µM	> 100 µM	> 100 µM	> 100 µM	> 100 µM

Reference: PubChem BioAssay (NCI)
